Reference: publication PMC11555678, “Improved Broad Spectrum Antifungal Drug Synergies with Cryptomycin, a Cdc50-Inspired Antifungal Peptide” (ACS Infectious Diseases, 2024)
Converted amounts (≈) assume the structure as drawn. Like-named read-outs stand apart in the source and are kept apart here.

Legend:
A. fumigatus AF293 [1] = experiment: Drug synergy (MIC in peptide-supplemented media); format: cell-based, Aspergillus fumigatus; conditions: RPMI1640, 37 °C, 48 h, CAS: paradoxical growth; for MIC of antifungal in combination with KKOO: MIC = <20% growth; for MIC of antifungal in combination with KKOO-NH2: MIC = well with <20% growth
Description: (§1) All microdilution assays with fungi were carried out in accordance with CLSI protocols from M27 for yeasts and M38 for filamentous fungi, respectively, unless otherwise specified.[64],[65] Briefly, 96-well plates were charged with RPMI1640 media, with operating volume in the first column, 200 μL, and half operating volume, 100 μL, in the remaining wells. Drug stock solution in DMSO was aliquoted into the first well in each row. Half of the volume in the dosed well was serially diluted 2-fold until column 11. Column 11 was used as the negative growth control, and column 12 was used as the positive growth control. ON yeast cultures in YPD were washed twice in DD-H2O, resuspended in PBS, and adjusted to 5000 cfu/mL in RPMI. The 96-well plate was inoculated with 100 μL aliquots of cell suspension per well. Plates were incubated at 37 °C for 2 days.
(§2) To assess drug synergy, the initial media charged to the plate contained the peptide at twice the final operating concentration; the remaining processing steps were identical to the MIC experiment. Upon addition of 100 μL of inoculant, the final operating concentration was achieved. Control MIC plates were prepared alongside drug synergy plates to account for the day-to-day variability in any individual MIC. FIC index is computed using eq 1. All MIC assays and drug synergy assays were completed with two technical replicates per 96-well plate and a minimum of two biological replicates per drug combination. If a difference in MIC between the two technical replicates on the plate were observed, only the higher concentration was reported as the MIC to reduce the possibility of type 1 error (false positive) [drawing 1] 1

C. neoformans apt4Δ = experiment: microbe, parasite or virus in culture; format: cell-based, Cryptococcus neoformans; conditions: Cryptococcus neoformans, 48 h
Description: as §1

C. neoformans apt1Δ = experiment: microbe, parasite or virus in culture; format: cell-based, Cryptococcus neoformans; conditions: Cryptococcus neoformans, 48 h
Description: as §1

C. neoformans cdc50Δ = experiment: microbe, parasite or virus in culture; format: cell-based, Cryptococcus neoformans; conditions: Cryptococcus neoformans, 48 h
Description: as §1

C. neoformans apt3Δ = experiment: microbe, parasite or virus in culture; format: cell-based, Cryptococcus neoformans; conditions: Cryptococcus neoformans, 48 h
Description: as §1

C. neoformans Crm1^OE = experiment: microbe, parasite or virus in culture; format: cell-based, Cryptococcus neoformans; conditions: Cryptococcus neoformans, 48 h
Description: as §1

Cg FKS1 S629P = experiment: Drug synergy (MIC in peptide-supplemented media); format: cell-based, Candida glabrata; conditions: RPMI1640, 37 °C, 48 h
Description: as §1, §2

Cg FKS2 S663P = experiment: Drug synergy (MIC in peptide-supplemented media); format: cell-based, Candida glabrata; conditions: RPMI1640, 37 °C, 48 h
Description: as §1, §2

C. albicans SC5413 = format: cell-based, Candida albicans; conditions: RPMI1640, 37 °C, 48 h; for MIC of antifungal in combination with KKOO: azole MICs unclear (intermediate phenotype); for MIC of antifungal in combination with KKOO-NH2: azole MICs could not be determined (intermediate phenotype)
Description: as §1, §2

A. fumigatus AF293 [2] = experiment: microbe, parasite or virus in culture; format: cell-based, Aspergillus fumigatus; conditions: Aspergillus fumigatus, AF293; compound alone; RPMI1640, 37 °C, 48 h; * = paradoxical growth observed (CAS); read-out: MIC
Description: as §1

C. glabrata 2001 = format: cell-based, Candida glabrata; conditions: RPMI1640, 37 °C, 48 h
Description: as §1, §2

C. auris B11245 = format: cell-based, Candida auris; conditions: RPMI1640, 37 °C, 48 h, CAS: paradoxical growth; for MIC of antifungal in combination with KKOO: MIC = <20% growth; for MIC of antifungal in combination with KKOO-NH2: MIC = well with <20% growth
Description: as §1, §2

Q: What does the source list for `C[C@@H]1[C@H](O)[C@@H](C)/C=C/C=C/C=C/C=C/C=C/C=C/C=C/[C@H](O[C@@H]2O[C@H](C)[C@@H](O)[C@H](N)[C@@H]2O)C[C@@H]2O[C@](O)(C[C@@H](O)C[C@@H](O)[C@H](O)CC[C@@H](O)C[C@@H](O)CC(=O)O[C@H]1C)C[C@H](O)[C@H]2C(=O)O` [AMB, amphotericin B]?
A: MIC of antifungal in combination with KKOO (A. fumigatus AF293 [1]; +0 μg/mL KKOO (control)): 1 µg/mL; MIC of antifungal in combination with KKOO-NH2 (A. fumigatus AF293 [1]; +0 μg/mL KKOO-NH2 (control)): 1 µg/mL; MIC of antifungal in combination with KKOO-NH2 (A. fumigatus AF293 [1]; +1 μg/mL KKOO-NH2): 0.5 µg/mL; MIC of antifungal in combination with KKOO (A. fumigatus AF293 [1]; +1 μg/mL KKOO): 0.25 µg/mL; MIC of antifungal in combination with KKOO-NH2 (A. fumigatus AF293 [1]; +2 μg/mL KKOO-NH2): 0.25 µg/mL; MIC of antifungal in combination with KKOO (A. fumigatus AF293 [1]; +2 μg/mL KKOO): 0.25 µg/mL; MIC of antifungal in combination with KKOO-NH2 (A. fumigatus AF293 [1]; +4 μg/mL KKOO-NH2): 0.5 µg/mL; MIC of antifungal in combination with KKOO (A. fumigatus AF293 [1]; +4 μg/mL KKOO): 0.25 µg/mL; MIC of antifungal in combination with KKOO-NH2 (A. fumigatus AF293 [1]; +8 μg/mL KKOO-NH2): 0.5 µg/mL; MIC (C. neoformans apt4Δ): 0.25 µg/mL (≈ 0.271 µM); MIC (C. neoformans apt1Δ): 0.5 µg/mL (≈ 0.541 µM); MIC (C. neoformans cdc50Δ): 0.5 µg/mL (≈ 0.541 µM); MIC (C. neoformans apt3Δ): 0.5 µg/mL (≈ 0.541 µM); MIC (C. neoformans Crm1^OE): 0.5 µg/mL (≈ 0.541 µM); MIC of antifungal in combination with KKOO (Cg FKS1 S629P; +0 μg/mL KKOO (control)): 1 µg/mL; MIC of antifungal in combination with KKOO-NH2 (Cg FKS1 S629P; +0 μg/mL KKOO-NH2 (control)): 0.5 µg/mL; MIC of antifungal in combination with KKOO-NH2 (Cg FKS1 S629P; +1 μg/mL KKOO-NH2): 0.25 µg/mL; MIC of antifungal in combination with KKOO (Cg FKS1 S629P; +1 μg/mL KKOO): 0.5 µg/mL; MIC of antifungal in combination with KKOO-NH2 (Cg FKS1 S629P; +2 μg/mL KKOO-NH2): 0.125 µg/mL; MIC of antifungal in combination with KKOO (Cg FKS1 S629P; +2 μg/mL KKOO): 0.25 µg/mL; MIC of antifungal in combination with KKOO-NH2 (Cg FKS1 S629P; +4 μg/mL KKOO-NH2): 0.062 µg/mL; MIC of antifungal in combination with KKOO (Cg FKS1 S629P; +4 μg/mL KKOO): 0.25 µg/mL; MIC of antifungal in combination with KKOO (Cg FKS2 S663P; +0 μg/mL KKOO (control)): 0.25 µg/mL; MIC of antifungal in combination with KKOO-NH2 (Cg FKS2 S663P; +0 μg/mL KKOO-NH2 (control)): 0.25 µg/mL; MIC of antifungal in combination with KKOO-NH2 (Cg FKS2 S663P; +1 μg/mL KKOO-NH2): 0.25 µg/mL; MIC of antifungal in combination with KKOO (Cg FKS2 S663P; +1 μg/mL KKOO): 0.25 µg/mL; MIC of antifungal in combination with KKOO-NH2 (Cg FKS2 S663P; +2 μg/mL KKOO-NH2): 0.062 µg/mL; MIC of antifungal in combination with KKOO (Cg FKS2 S663P; +2 μg/mL KKOO): 0.125 µg/mL; MIC of antifungal in combination with KKOO-NH2 (Cg FKS2 S663P; +4 μg/mL KKOO-NH2): 0.016 µg/mL; MIC of antifungal in combination with KKOO (Cg FKS2 S663P; +4 μg/mL KKOO): 0.031 µg/mL; MIC of antifungal in combination with KKOO (C. albicans SC5413; +0 μg/mL KKOO (control)): 1 µg/mL; MIC of antifungal in combination with KKOO-NH2 (C. albicans SC5413; +0 μg/mL KKOO-NH2 (control)): 1 µg/mL; MIC of antifungal in combination with KKOO-NH2 (C. albicans SC5413; +1 μg/mL KKOO-NH2): 0.5 µg/mL; MIC of antifungal in combination with KKOO (C. albicans SC5413; +1 μg/mL KKOO): 0.5 µg/mL; MIC of antifungal in combination with KKOO-NH2 (C. albicans SC5413; +2 μg/mL KKOO-NH2): 0.25 µg/mL; MIC of antifungal in combination with KKOO (C. albicans SC5413; +2 μg/mL KKOO): 0.25 µg/mL; MIC of antifungal in combination with KKOO-NH2 (C. albicans SC5413; +4 μg/mL KKOO-NH2): 0.25 µg/mL; MIC of antifungal in combination with KKOO (C. albicans SC5413; +4 μg/mL KKOO): 0.125 µg/mL; MIC of antifungal in combination with KKOO (C. albicans SC5413; +8 μg/mL KKOO): 0.125 µg/mL; MIC (A. fumigatus AF293 [2]): 1 µg/mL (≈ 1.08 µM); MIC of antifungal in combination with KKOO (C. glabrata 2001; +0 μg/mL KKOO (control)): 1 µg/mL; MIC of antifungal in combination with KKOO-NH2 (C. glabrata 2001; +0 μg/mL KKOO-NH2 (control)): 1 µg/mL; MIC of antifungal in combination with KKOO-NH2 (C. glabrata 2001; +1 μg/mL KKOO-NH2): 0.5 µg/mL; MIC of antifungal in combination with KKOO (C. glabrata 2001; +1 μg/mL KKOO): 0.5 µg/mL; MIC of antifungal in combination with KKOO-NH2 (C. glabrata 2001; +2 μg/mL KKOO-NH2): 0.25 µg/mL; MIC of antifungal in combination with KKOO (C. glabrata 2001; +2 μg/mL KKOO): 0.25 µg/mL; MIC of antifungal in combination with KKOO-NH2 (C. glabrata 2001; +4 μg/mL KKOO-NH2): 0.25 µg/mL; MIC of antifungal in combination with KKOO (C. glabrata 2001; +4 μg/mL KKOO): 0.25 µg/mL; MIC of antifungal in combination with KKOO (C. glabrata 2001; +8 μg/mL KKOO): 0.125 µg/mL; MIC of antifungal in combination with KKOO (C. auris B11245; +0 μg/mL KKOO (control)): 1 µg/mL; MIC of antifungal in combination with KKOO-NH2 (C. auris B11245; +0 μg/mL KKOO-NH2 (control)): 1 µg/mL; MIC of antifungal in combination with KKOO-NH2 (C. auris B11245; +1 μg/mL KKOO-NH2): 0.5 µg/mL; MIC of antifungal in combination with KKOO (C. auris B11245; +1 μg/mL KKOO): 0.5 µg/mL; MIC of antifungal in combination with KKOO-NH2 (C. auris B11245; +2 μg/mL KKOO-NH2): 0.5 µg/mL; MIC of antifungal in combination with KKOO (C. auris B11245; +2 μg/mL KKOO): 0.5 µg/mL; MIC of antifungal in combination with KKOO-NH2 (C. auris B11245; +4 μg/mL KKOO-NH2): 0.25 µg/mL; MIC of antifungal in combination with KKOO (C. auris B11245; +4 μg/mL KKOO): 0.25 µg/mL
